This note sets out measurements from patent US20060194826A1, “Pharmaceutical combinations of hydrocodone and naltrexone” (EURO-CELTIQUE S.A., priority 2003, published 2006).

Structures are written as SMILES. “Also recorded” adds a separate entry of the source. A value given as a limit tells only on which side of the number the result lay.

The subject of data set [1] is normal, healthy, adult male and female volunteers. Put plainly: Safety assessment (Example 5). The procedure:
(§1) In Example 5, a single center, placebo controlled, double-blind, randomized 9-treatment, 3 period crossover trial with an open-label screening phase was conducted.

Data set [2] deals with subjects receiving methadone maintenance therapy. Description: Double-blind crossover, subjective and physiologic opioid agonist/antagonist measures (Example 6).
The test system of data set [3] is minute ventilation in normal, healthy, adult male and female volunteers. Description: CO2 rebreathing test, double-blind crossover trial (Example 5). The note with it: oral NTX 0.125 to 8.0 mg with 15, 20 or 25 mg oral HYIR. The class given is in vivo, human. The procedure: as §1
Data set [4] concerns subjects on methadone maintenance therapy. Put plainly: Open-label naltrexone titration safety assessment (Example 6). The settings on record: 2 subjects, 30 mg hydrocodone at 0 hr, naltrexone at hourly intervals, oral. In kind it is in vivo, human. How it is done: Example 6 consisted of open-label and double-blind treatment phases conducted in male and female subjects receiving daily oral methadone maintenance doses from 60 to 90 mg. The methadone maintenance dose was given to the subject the day before each scheduled period. Administration of study medication occurred no sooner than 16 hours and no later than 22 hours after the methadone maintenance dose was given. 14 subjects were enrolled in the study (2 subjects, open-label phase (ascending dose naltrexone safety assessment) and 12 subjects, double-blind phase).
The open-label phase was a safety assessment of the 2 naltrexone doses (0.75 and 2.0 mg) planned in the protocol in subjects on methadone maintenance therapy. This phase of the study consisted of a screening visit conducted up to 14 days before administration of study drug, and a naltrexone titration visit. During the naltrexone titration visit, 2 subjects were to receive 30 mg of hydrocodone and 0.125 mg of naltrexone at 0 hr, with additional doses of naltrexone, up to a cumulative dose of 2.0 mg, administered at hourly intervals over the next 4 hours. In the open-label phase, neither subject received more than a 1.0-mg cumulative dose of naltrexone before rescue with methadone was required. […]

The test system of data set [5] is subjects receiving methadone maintenance therapy. Put plainly: Safety measures, double-blind phase (Example 6). In kind it is in vivo, human. The note with it: with increasing NTX dose; most mild or moderate.
Data set [6] concerns healthy volunteers with hyperalgesia. Put plainly: Thermal Discomfort and Pain Latency testing (Example 7). In kind it is in vivo, human. The procedure: (§2) Example 7 consisted of a single center trial conducted as a placebo-controlled, double-blind, randomized, 4-treatment, 4-period crossover study, which included a single-blind phase. Each treatment sequence consisted of 4 treatment periods, each of 4 hours duration, separated by at least a 5-day washout interval. […] The total duration of this study, including screening, was approximately 52 days.
(§3) After at least 5 days, those subjects who successfully completed the single-blind phase were randomized into the double-blind phase of the study. Healthy male and female volunteers were enrolled in this study.
A test site and a control site were selected on each forearm and marked with a washable marker. Next, the topical anesthetic was applied to the test site. After approximately 1.5 hours (allowing for the anesthetic to take effect), the cream was removed and a thermal stimulus was applied to the test site for 3 minutes using a copper mass heated to 52° C. […]
Thermal Discomfort testing was designed to measure a subject's perception of discomfort following a 5-second contact with a warmed 1″ diameter copper mass (Uniformed Services University of the Health Sciences, Bethesda, Md.). […] The distance from the left anchor to the vertical mark was measured and was used as the quantitative measure of Thermal Discomfort. […]

Data set [7] shares this test system. Put plainly: Pupillometry (Example 7). In kind it is in vivo, human. How it is done:
Each treatment sequence consisted of 4 treatment periods, each of 4 hours duration, separated by at least a 5-day washout interval. […] The total duration of this study, including screening, was approximately 52 days.
as §3
(§4) The same test measurements conducted at baseline were then conducted at 0.5, 1, 2, 3, and 4 hours postdosing. Thermal Discomfort and Pain Latency testing were conducted at each time point on the control site (area on the other forearm, which was not subjected to the thermal stimulus). Testing on the control site was done prior to the test site for each time point. Each subject rested and recovered for no less than 5 days before returning for the next period. In the follow-up phase, subjects returned to the clinic within 7 days after completion of the study for a final check of the test site and a review of the subject's laboratory data prior to official discharge from the study.
Pupillometry was performed to measure the effect of the study treatment on pupil diameter. The pupil was photographed using a Polaroid One-Step Closeup Camera (Polaroid Corporation, Cambridge, Mass.) with modified 2× magnification oculars (John Hopkins University, Baltimore, Md.) and Polaroid 600 color film (Polaroid Corporation, Cambridge, Mass.). […] The camera was positioned on the subject's eye socket, aligning the iris with the middle of the opening of the lens adapter. The pupil diameter was measured from the photograph, in millimeters, using Model CD-6C Mitutoyo digital calipers (Judge Tool Sales, Southport, Conn.). The same eye was measured at all times for each subject.

Data set [8] shares this test system. Description: Subjective Symptom Rating Scale and Drug Rating Questionnaire (Example 7). The class given is in vivo, human. How it is done:
as §2, §3, §4
The Symptom Rating Scale Questionnaire consisted of 25 items. […]

Another data set deals with healthy volunteers. Description: Safety and adverse events (Example 7). In kind it is in vivo, human. How it is done: as §2
An AE (adverse event) was defined as any unfavorable and unintended sign (including abnormal laboratory findings), symptom or disease temporally associated with the use of a medicinal product, whether or not considered related to the medicinal product. An AE was classified as a TEAE (treatment emergent adverse event) only if the AE occurred after the first dose of the study drug was administered to a subject who was enrolled in the study. The period of observation for TEAEs was from the time that the first dose of study medication was administered until release from the study after completion of period 4 or at early discontinuation. All AEs reported by the subject or observed by the investigator/study staff were fully documented throughout the study. When AEs were encountered that required medical intervention, appropriate supportive and/or definitive therapy was provided by appropriately qualified and licensed medical personnel. […]

Setting [9] is: 0.25-mg NTX dose with 30 mg HYIR.
[10] abbreviates: 0.5-mg NTX dose with 30 mg HYIR.

In the case of `COc1ccc2c3c1O[C@H]1C(=O)CC[C@H]4[C@@H](C2)N(C)CC[C@]314.O=C(O)C(O)C(O)C(=O)O` [HYIR, Hydrocodone bitartrate], in data set [1] (15-, 20-, or 25-mg doses of HYIR), the safety concerns entry was “no new safety concerns”. Further, in data set [2] (30 mg HYIR plus NTX placebo), the “changes from predose in all pharmacodynamic variables” value was “minimal changes from predose” and the “subjects requiring a rescue dose of methadone” value is reported as 4 of the 12. Moreover, in data set [2] (30-mg oral dose of HYIR), the “subjective or physiologic opioid agonist activity” value is on record as “did not produce significant subjective or physiologic opioid agonist activity”. The “trend of treatment means (PDmax and AUC) over the 3 periods, FIGS. 1-12” value in data set [2] (HYIR+NTX placebo treatment) is “increase in subjective and physiologic opioid agonist effects”.

With `O=C1CC[C@@]2(O)[C@H]3Cc4ccc(O)c5c4[C@@]2(CCN3CC2CC2)[C@H]1O5` [NTX, Naltrexone HCI], the “effect on HYIR-induced respiratory depression (% MPE20, % MPE30, double-blind MPE20 and MPE30)” value in data set [3] is “statistically significant trend toward less respiratory depression; also recorded: blocked respiratory depression”. Further, the safety concerns entry in data set [1] (NTX 0.125 to 8.0 mg combined with 15, 20 or 25 mg HYIR) is reported as “no new safety concerns”. Besides, the “cumulative dose of naltrexone received before rescue with methadone was required” value in [4] is reported as not above 1.0 mg. Also, the “treatment-emergent adverse events commonly associated with opioid withdrawal per subject” value in data set [5] is “increase in the number of treatment-emergent adverse events”. In data set [6] (15 mg HYIR + 0.25-, 0.5-, or 1.0-mg NTX, oral), the “difference vs HYIR+placebo NTX in mean Thermal Discomfort VAS scores, Pain Latency, derived pharmacodynamic metrics of hyperalgesia” value is reported as “no statistically significant differences”. In addition, in data set [6] (NTX 0.25, 0.5, or 1.0-mg), the “reduction of the analgesia produced by 15 mg oral HYIR (Thermal Discomfort VAS scores and Pain Latency testing)” value was “None of the doses of NTX used in this study (0.25, 0.5, or 1.0-mg) produced a statistically significant reduction”. In addition, the “statistically significant increase in pupil diameter PDmax compared with HYIR+placebo NTX” value in data set [7] (HYIR+0.5 mg NTX and HYIR+1.0-mg NTX) is reported as “not”. Moreover, in data set [7] (NTX 0.25, 0.5, 1.0 mg), the “NTX dose-related effect on the physiologic opioid agonist activity of the 15-mg dose of HYIR” value is listed as “no consistent NTX dose-related effect”. Also, the HYIR-induced pupil constriction entry in data set [7] (all NTX doses (0.25, 0.5, 1.0 mg) with 15 mg HYIR) is “reduced HYIR-induced pupil constriction”. For the same compound, in [8] (15 mg HYIR with placebo, 0.25, 0.5 or 1.0 mg NTX), the “subjective opioid agonist effects of HYIR (Subjective Symptom Rating Scale and Subjective Drug Rating Questionnaire)” value is “no statistically significant differences among the treatments or consistent NTX dose-related trends”. For the same compound, the “NTX dose-related effect on the subjective opioid agonist activity of the 15-mg dose of HYIR” value in [8] (NTX 0.25, 0.5, 1.0 mg) was “no consistent NTX dose-related effect”. Besides, the “number of reported TEAEs commonly associated with opioid use” value in the data set on healthy volunteers (15 mg HYIR with increasing NTX dose) is reported as “decreased with increased NTX dose”. In the data set on healthy volunteers (15 mg of oral HYIR combined with 0.25, 0.5, or 1.0-mg NTX), the safety concerns result is “no safety concerns”. Besides, in data set [2] (0.25- and 0.5-mg oral NTX doses), the “aversive effects in methadone-maintained subjects” value was “elicit aversive effects”. In data set [2] (setting [9]), the “negative feeling states and antagonist activity (precipitated withdrawal)” value was “threshold dose with a trend toward negative feeling states”; the “subjects requiring a rescue dose of methadone” value is reported as “Approximately 60%”. For the same compound, in data set [2] (setting [10]), the “difference from NTX placebo treatment in mean PDmax, all queries except "Feeling sick"” value is reported as “statistically significant differences”; the “precipitated withdrawal (Drug Effects Scales, antagonist total score, pupil diameter vs NTX placebo)” value is reported as “strong evidence of precipitated withdrawal”; the “subjects requiring a rescue dose of methadone” value is recorded as approximately 90%. Besides, in data set [2] (NTX 0.25 and 0.5 mg with 30 mg HYIR), the “negative feeling states and precipitated withdrawal, dose dependence” value was “dose-dependent increases in negative feeling states and precipitated withdrawal”. Besides, in data set [2] (NTX 0.25 and 0.5 mg with 30 mg HYIR, not always statistically significant), the “effect on all secondary pharmacodynamic variables except the agonist total scores from the Subjective and Observer Symptom Rating Scales” value is listed as “dose-related effect”. In [2] (NTX 0.25 to 0.5 mg with 30 mg HYIR), the “effect on mean PDmax values for all 4 queries on the Subjective Drug Effects Scale” value was “dose-related effect”. For the same compound, in data set [2] (low dose NTX added to HYIR, subjects physically dependent on opioids), the “appeal and abuse liability potential of HYIR” value was “decreased the appeal”.
